Laboratory results published in US12306176B2, “Microfluidic bi-directional migration assay” (Ohio State Innovation Foundation, priority 2017, dated 2025).

System: MDA-MB-231 cells
Assay: Modified transwell migration assay
Type: cell-based, human
Conditions: EGF 100 ng/mL in bottom chamber, 8 hours
Excerpt: In addition to the MBDM assay, the modified transwell migration assay (Ahirwar D K, et al. (2015) Sci Rep 5:11005.) was used to determine the effects of standalone iEF treatment on number of cells migrated to complement the speed and persistence data obtained from the MBDM assay. iEF treatment alone had no significant effect (neither stimulatory nor inhibitory) on the total number of MDA-MB-231 cells that spontaneously migrated across the transwell membrane (˜10 μm thick) compared to the untreated control (FIG. 8). These outcomes occurred for both anti-parallel and parallel directions of iEF application.
Transwell permeable supports that have 6.5 mm diameter inserts of polycarbonate membrane with 8 μm diameter pore size (Corning, CLS3422) were used in the experiments reported here. […] Cell migration numbers were then quantified using a custom MATLAB script as described in Image Acquisition and Processing. […]
Images from experiments with the transwell migration assays were taken using a stereo microscope (Leica Microsystems Inc.) after fixation and staining of the cells using the HEMA 3 solution kit (Fisher Scientific). […] The images were then imported into MATLAB and analyzed using a custom code (MATLAB script). […] The average area of a cell was determined from the mean of manual measurements of approximately 20 isolated cells for each case. […]

## epidermal growth factor [EGF]
  transmigration compared to untreated controls: significantly promoted
